Reference: PubChem BioAssay AID248 (DTP/NCI, 2004)
Where “and” joins values, the source holds several entries; their conditions need not be identical. Equal entries are not always repeated. Inconclusive results and toxic doses are left out. No stated cut-off is given here; in the data, active means T/C of 150% or more; inactive means T/C below 125%.

System: L1210 leukemia ip in BDF1 mice, survival T/C
Experiment: NCI In Vivo Anticancer Drug Screen. Data for tumor model L1210 Leukemia (intraperitoneal) in B6D2F1 (BDF1) mice
Details: endpoint: mean survival time, higher = longer survival
Method in brief: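 Read-out is survival time, reported as the treated-group measurement over the vehicle-control measurement.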

[1] = dose: 100.0 mg/kg/injection, schedule: Q04DX003 (ip), vehicle: saline
[2] = dose: 200.0 mg/kg/injection, schedule: Q04DX003 (ip), vehicle: saline
[3] = dose: 400.0 mg/kg/injection, schedule: Q04DX003 (ip), vehicle: saline
[4] = dose: 50.0 mg/kg/injection, schedule: Q01DX009 (ip), vehicle: saline with Tween-80
[5] = dose: 100.0 mg/kg/injection, schedule: Q01DX009 (ip), vehicle: saline with Tween-80
[6] = dose: 200.0 mg/kg/injection, schedule: Q01DX009 (ip), vehicle: saline with Tween-80
[7] = dose: 100.0 mg/kg/injection, schedule: Q04DX003 (ip), vehicle: Klucel (hydroxypropylcellulose) (HPC)
[8] = dose: 200.0 mg/kg/injection, schedule: Q04DX003 (ip), vehicle: Klucel (hydroxypropylcellulose) (HPC)
[9] = dose: 400.0 mg/kg/injection, schedule: Q04DX003 (ip), vehicle: Klucel (hydroxypropylcellulose) (HPC)
[10] = dose: 100.0 mg/kg/injection, schedule: Q01DX001 (ip), vehicle: saline
[11] = dose: 100.0 mg/kg/injection, schedule: Q04DX002 (ip), vehicle: Klucel (hydroxypropylcellulose) (HPC)
[12] = dose: 100.0 mg/kg/injection, schedule: Q04DX002 (ip), vehicle: saline
[13] = dose: 200.0 mg/kg/injection, schedule: Q01DX001 (ip), vehicle: saline
[14] = dose: 200.0 mg/kg/injection, schedule: Q04DX002 (ip), vehicle: saline
[15] = dose: 400.0 mg/kg/injection, schedule: Q01DX001 (ip), vehicle: saline
[16] = dose: 25.0 mg/kg/injection, schedule: Q01DX009 (ip), vehicle: Klucel (hydroxypropylcellulose) (HPC)
[17] = dose: 50.0 mg/kg/injection, schedule: Q01DX009 (ip), vehicle: Klucel (hydroxypropylcellulose) (HPC)
[18] = dose: 100.0 mg/kg/injection, schedule: Q01DX009 (ip), vehicle: Klucel (hydroxypropylcellulose) (HPC)
[19] = dose: 50.0 mg/kg/injection, schedule: Q01DX001 (ip), vehicle: carboxymethylcellulose (CMC)
[20] = dose: 100.0 mg/kg/injection, schedule: Q01DX001 (ip), vehicle: carboxymethylcellulose (CMC)
[21] = dose: 200.0 mg/kg/injection, schedule: Q01DX001 (ip), vehicle: carboxymethylcellulose (CMC)
[22] = dose: 400.0 mg/kg/injection, schedule: Q01DX001 (ip), vehicle: carboxymethylcellulose (CMC)
[23] = dose: 100.0 mg/kg/injection, schedule: Q04DX002 (ip), vehicle: saline with Tween-80
[24] = dose: 200.0 mg/kg/injection, schedule: Q04DX002 (ip), vehicle: saline with Tween-80
[25] = dose: 400.0 mg/kg/injection, schedule: Q04DX002 (ip), vehicle: saline with Tween-80
[26] = dose: 25.0 mg/kg/injection, schedule: Q04DX003 (ip), vehicle: Klucel (hydroxypropylcellulose) (HPC)
[27] = dose: 200.0 mg/kg/injection, schedule: Q04DX002 (ip), vehicle: Klucel (hydroxypropylcellulose) (HPC)

Measured: T/C

CN(C)NP(=O)(NN(C)C)N(C)C
inactive: [1] 100 % of control | [2] 100 % of control | [3] 94 % of control

COc1ccc(C(=O)C/C(=N\N(C(=O)c2ccc(OC)cc2)c2ccccc2)c2ccc(OC)cc2)cc1
inactive: [4] 100 % of control | [5] 93 % of control | [6] 98 % of control

CCOC(=O)/C=[C](\C(=O)OCC)[Sn]([CH2]C)([CH2]C)[CH2]C
inactive: [4] 104 % of control | [5] 96 % of control | [6] 93 % of control

CC(=O)OC1CCC2(C)C(=CCC3C4C/C(=C\N5CCCC5)C(=O)C4(C)CCC32)C1 (configuration not stated)
inactive: dose: 100.0 mg/kg/injection, schedule: Q01DX001 (ip), vehicle: saline with Tween-80 93 % of control | dose: 200.0 mg/kg/injection, schedule: Q01DX001 (ip), vehicle: saline with Tween-80 90 % of control | dose: 400.0 mg/kg/injection, schedule: Q01DX001 (ip), vehicle: saline with Tween-80 90 % of control

O=C(O)/C=C/c1cccc(Cl)c1
inactive: dose: 100.0 mg/kg/injection, schedule: Q01DX009 (ip), vehicle: gum acacia 113 % of control | dose: 200.0 mg/kg/injection, schedule: Q01DX009 (ip), vehicle: gum acacia 104 % of control | dose: 400.0 mg/kg/injection, schedule: Q01DX009 (ip), vehicle: gum acacia 100 % of control

CC(=O)Nc1c(I)cc(I)c(C(=O)O)c1I
inactive: dose: 100.0 mg/kg/injection, schedule: Q04DX003 (ip), vehicle: saline sonified 98 % of control | dose: 200.0 mg/kg/injection, schedule: Q04DX003 (ip), vehicle: saline sonified 101 % of control | dose: 400.0 mg/kg/injection, schedule: Q04DX003 (ip), vehicle: saline sonified 103 % of control

Cc1ccc(C)n1CCO
inactive: dose: 44.0 mg/kg/injection, schedule: Q01DX Z (ip), vehicle: saline 106 % of control | dose: 66.0 mg/kg/injection, schedule: Q01DX Z (ip), vehicle: saline 94 % of control | dose: 100.0 mg/kg/injection, schedule: Q01DX Z (ip), vehicle: saline 96 % of control

Cc1ccc(N2SC(Cl)(Cl)N(c3ccc(C)cc3)SC2(Cl)Cl)cc1
inactive: [7] 94 % of control | [8] 90 % of control | [9] 100 % of control

c1ccc([P+](Cc2cccc3c2Cc2ccccc2-3)(c2ccccc2)c2ccccc2)cc1
inactive: dose: 15.0 mg/kg/injection, schedule: Q01DX001 (ip), vehicle: carboxymethylcellulose (CMC) 104 % of control

COC1OC2COC(c3ccccc3)OC2C2OC(=S)OC12 (configuration not stated)
inactive: dose: 25.0 mg/kg/injection, schedule: Q04DX002 (ip), vehicle: Klucel (hydroxypropylcellulose) (HPC) 104 % of control | dose: 50.0 mg/kg/injection, schedule: Q04DX002 (ip), vehicle: Klucel (hydroxypropylcellulose) (HPC) 97 % of control | [10] 102 % of control | [11] 104 % of control | [12] 93 % of control | [13] 98 % of control | [14] 100 % of control | [15] 98 % of control | dose: 400.0 mg/kg/injection, schedule: Q04DX002 (ip), vehicle: saline 107 % of control

Nc1cc2c(cc1N)C(=O)c1ccccc1C2=O
inactive: dose: 100.0 mg/kg/injection, schedule: Q01DX001 (ip), vehicle: acetone 95 % of control | [7] 101 % of control | dose: 200.0 mg/kg/injection, schedule: Q01DX001 (ip), vehicle: acetone 98 % of control | [8] 94 % of control | dose: 400.0 mg/kg/injection, schedule: Q01DX001 (ip), vehicle: acetone 102 % of control | [9] 90 % of control

CC(=O)/C=N/Nc1ccccc1
inactive: [16] 93 % of control | [17] 97 % of control | dose: 50.0 mg/kg/injection, schedule: Q04DX003 (ip), vehicle: carboxymethylcellulose (CMC) 110 % of control | [18] 97 % of control | dose: 100.0 mg/kg/injection, schedule: Q04DX003 (ip), vehicle: carboxymethylcellulose (CMC) 106 % of control

O=C1C(=O)c2cc(Br)cc([N+](=O)[O-])c2-c2ccc(Br)cc21
inactive: [19] 95 % of control | [20] 106 % of control | [21] 101 % of control | [22] 97 % of control

COc1ccc(C(=O)OCCN(CCOC(=O)c2ccc(OC)cc2)c2c[nH]c(=O)[nH]c2=O)cc1
inactive: [19] 106 % of control | [20] 93 % of control | [21] 95 % of control | [22] 93 % of control

CCCCP(=O)(CC(=O)O)c1ccccc1 (configuration not stated)
inactive: [23] 97 % of control | [24] 100 % of control | [25] 90 % of control

F[Si](F)(c1ccccc1)c1ccccc1
inactive: dose: 75.0 mg/kg/injection, schedule: Q01DX001 (ip), vehicle: saline 105 % of control | dose: 150.0 mg/kg/injection, schedule: Q01DX001 (ip), vehicle: saline 100 % of control

CC[n+]1c(C)sc2cc3c(cc21)OCO3
inactive: [26] 102 % of control | [17] 103 % of control | dose: 50.0 mg/kg/injection, schedule: Q04DX003 (ip), vehicle: Klucel (hydroxypropylcellulose) (HPC) 107 % of control | [18] 96 % of control | [7] 105 % of control and 109 % of control

CCCOCCOCCOC(C)Oc1ccc(OC)cc1 (configuration not stated)
inactive: [12] 92 % of control | [14] 101 % of control

Cn1nnc(C(N)=O)n1
inactive: [10] 93 % of control | [13] 98 % of control | [15] 94 % of control

c1ccc(CN2C3CCCC2CC(c2ccccc2)C3)cc1 (configuration not stated)
inactive: [11] 92 % of control | [27] 87 % of control

CCCCCCCCCCCC[N+]1([O-])CCOCC1
inactive: [24] 94 % of control | [25] 102 % of control

S=C=NCC(Br)CBr (configuration not stated)
inactive: dose: 6.25 mg/kg/injection, schedule: Q01DX009 (ip), vehicle: Klucel (hydroxypropylcellulose) (HPC) 104 % of control | dose: 12.5 mg/kg/injection, schedule: Q01DX009 (ip), vehicle: Klucel (hydroxypropylcellulose) (HPC) 103 % of control | dose: 12.5 mg/kg/injection, schedule: Q04DX003 (ip), vehicle: Klucel (hydroxypropylcellulose) (HPC) 95 % of control | [16] 87 % of control | [26] 105 % of control

NC(=O)N/N=C/Cc1ccc2c(c1)OCO2
inactive: [20] 97 % of control | [21] 87 % of control | [22] 92 % of control

COc1cc(/C=C2\C=Nc3ccccc32)ccc1O
inactive: [11] 97 % of control | [27] 105 % of control | dose: 400.0 mg/kg/injection, schedule: Q04DX002 (ip), vehicle: Klucel (hydroxypropylcellulose) (HPC) 102 % of control

O=C1CSC(=S)N1c1ccc(N2C(=O)CSC2=S)cc1
inactive: [23] 90 % of control | [24] 96 % of control | [25] 100 % of control

CCOC(=O)C(CC)C(=O)OCC
inactive: dose: 100.0 mg/kg/injection, schedule: Q04DX003 (ip), vehicle: saline with Tween-80 104 % of control | dose: 200.0 mg/kg/injection, schedule: Q04DX003 (ip), vehicle: saline with Tween-80 98 % of control | dose: 400.0 mg/kg/injection, schedule: Q04DX003 (ip), vehicle: saline with Tween-80 93 % of control

CSc1cc(=O)n(C2OC(CO)C(O)C2O)c(=O)[nH]1 (configuration not stated)
inactive: [10] 101 % of control | dose: 100.0 mg/kg/injection, schedule: Q01DX005 (ip), vehicle: saline 101 % of control | [13] 118 % of control | dose: 200.0 mg/kg/injection, schedule: Q01DX005 (ip), vehicle: saline 97 % of control | [15] 104 % of control

COC1OC2COC(c3ccccc3)OC2C(OC)C1OC(=O)c1ccccc1 (configuration not stated)
inactive: [1] 93 % of control | [2] 91 % of control | [3] 98 % of control
